# Key:
# Assay in all cases: relative viability (nuclei count vs DMSO), 5 days (fraction); higher = more cells survive
# Pazopanib + Pemetrexed = compound: Cc1ccc(Nc2nccc(N(C)c3ccc4c(C)n(C)nc4c3)n2)cc1S(N)(=O)=O [Pazopanib] + Nc1nc2[nH]cc(CCc3ccc(C(=O)N[C@@H](CCC(=O)O)C(=O)O)cc3)c2c(=O)[nH]1 [Pemetrexed] (partner 0.2 µM)
# Procedure, shortened: (§1)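 Relative viability was taken as the ratio of nuclei in treated wells to nuclei in vehicle wells. Lung cancer cell lines in 1536-well plates received compounds by pin tool one day after seeding, either one drug alone or a fixed anchor-drug dose plus five library-drug doses (not always all listed) in √10 steps. Nuclei were counted on 4× images after 5 days of treatment, and values are medians of duplicate plates.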
# Pazopanib + Foretinib = compound: Cc1ccc(Nc2nccc(N(C)c3ccc4c(C)n(C)nc4c3)n2)cc1S(N)(=O)=O [Pazopanib] + COc1cc2c(Oc3ccc(NC(=O)C4(C(=O)Nc5ccc(F)cc5)CC4)cc3F)ccnc2cc1OCCCN1CCOCC1 [Foretinib] (partner 0.25 µM)
# Procedure, shortened: as §1
# Pazopanib + Tozasertib = compound: Cc1ccc(Nc2nccc(N(C)c3ccc4c(C)n(C)nc4c3)n2)cc1S(N)(=O)=O [Pazopanib] + Cc1cc(Nc2cc(N3CCN(C)CC3)nc(Sc3ccc(NC(=O)C4CC4)cc3)n2)n[nH]1 [Tozasertib] (partner 0.1 µM)
# Procedure, shortened: as §1
# Ponatinib + Pemetrexed = compound: Cc1ccc(C(=O)Nc2ccc(CN3CCN(C)CC3)c(C(F)(F)F)c2)cc1C#Cc1cnc2cccnn12 [Ponatinib] + Nc1nc2[nH]cc(CCc3ccc(C(=O)N[C@@H](CCC(=O)O)C(=O)O)cc3)c2c(=O)[nH]1 [Pemetrexed] (partner 0.2 µM)
# Procedure, shortened: as §1
Cell Line,relative viability (Pazopanib + Pemetrexed; first compound 0.01 µM),relative viability (Pazopanib + Pemetrexed; first compound 0.03162 µM),relative viability (Pazopanib + Pemetrexed; first compound 0.1 µM),relative viability (Pazopanib + Pemetrexed; first compound 0.3162 µM),relative viability (Pazopanib + Pemetrexed; first compound 1 µM),relative viability (Pazopanib + Foretinib; first compound 0.01 µM),relative viability (Pazopanib + Foretinib; first compound 0.03162 µM),relative viability (Pazopanib + Foretinib; first compound 0.1 µM),relative viability (Pazopanib + Foretinib; first compound 0.3162 µM),relative viability (Pazopanib + Foretinib; first compound 1 µM),relative viability (Pazopanib + Tozasertib; first compound 0.01 µM),relative viability (Pazopanib + Tozasertib; first compound 0.03162 µM),relative viability (Pazopanib + Tozasertib; first compound 0.1 µM),relative viability (Pazopanib + Tozasertib; first compound 0.3162 µM),relative viability (Pazopanib + Tozasertib; first compound 1 µM),relative viability (Ponatinib + Pemetrexed; first compound 0.002 µM),relative viability (Ponatinib + Pemetrexed; first compound 0.006325 µM),relative viability (Ponatinib + Pemetrexed; first compound 0.06325 µM),relative viability (Ponatinib + Pemetrexed; first compound 0.2 µM)
ChaGo-K-1,0.267,0.256,0.268,0.257,0.252,0.934,0.909,1.01,0.884,0.946,0.21,0.221,0.241,0.257,0.255,0.264,0.258,0.262,0.246
NCI-H661,0.863,0.938,0.969,0.955,0.861,0.996,1.08,1.04,1,0.995,0.343,0.355,0.349,0.347,0.344,0.965,0.968,0.932,0.87
COR-L23,0.177,0.182,0.207,0.204,0.203,0.916,1.03,0.922,0.986,0.989,0.236,0.173,0.202,0.214,0.152,0.19,0.193,0.189,0.19
COR-L 105,1.07,1.24,1.19,1.21,1.21,0.926,0.87,1.15,1.04,1.18,0.341,0.345,0.356,0.334,0.382,1.09,1.07,1.25,1.04
LK-2,0.218,0.243,0.256,0.346,0.201,–,1.2,1.07,1.11,1.01,–,0.178,0.201,0.169,0.174,0.281,0.305,0.186,0.247
201T,0.369,0.331,0.318,0.333,0.323,1.13,1.09,1.1,1.15,0.996,0.961,1,0.961,0.908,0.926,0.319,0.324,0.346,0.352
NCI-H647,0.174,0.159,0.164,0.153,0.177,1.13,0.974,1.14,0.925,0.854,0.23,0.279,0.395,0.43,0.321,0.203,0.193,0.17,0.203
H3255,0.549,0.585,0.581,0.569,0.583,0.625,0.838,0.794,0.84,0.939,0.489,0.629,0.986,0.656,0.734,0.527,0.607,0.614,0.546
NCI-H650,0.871,0.922,0.863,0.884,0.798,1.02,1.11,0.995,0.898,0.818,0.688,0.826,0.691,0.804,0.655,0.815,0.965,0.948,0.872
NCI-H2023,0.18,0.206,0.271,0.22,0.216,–,0.886,0.77,0.849,0.893,0.467,0.318,0.38,0.331,0.242,0.17,0.222,0.235,0.186
NCI-H23,0.529,0.727,0.702,0.658,0.829,1.1,1.02,0.964,0.947,1.12,0.373,0.341,0.359,0.458,0.392,0.616,0.766,0.819,0.666
NCI-H2170,0.258,0.307,0.264,0.277,0.258,1.06,1.08,1.01,1.02,1.07,0.772,0.724,0.73,0.67,0.674,0.238,0.263,0.281,0.331
NCI-H1944,0.562,0.635,0.67,0.724,0.603,–,0.94,0.905,0.861,0.986,–,0.234,0.258,0.252,0.257,0.631,0.662,0.676,0.719
NCI-H596,0.472,0.494,0.478,0.522,0.528,–,0.723,0.9,0.815,0.84,–,0.942,0.856,0.936,0.761,0.478,0.467,0.48,0.469
NCI-H520,0.642,0.728,0.768,0.755,0.602,0.675,1.02,0.688,0.799,0.936,0.458,0.416,0.452,0.438,0.386,0.59,0.636,0.556,0.407
EKVX,0.37,0.403,0.377,0.35,0.361,0.961,0.866,0.62,0.901,0.942,0.355,0.383,0.435,0.422,0.448,0.382,0.493,0.427,0.374
SK-MES-1,0.91,0.981,0.961,0.924,0.985,0.95,0.985,0.951,0.951,1.1,0.934,0.891,0.916,0.905,0.786,0.89,0.934,1.16,0.948
EPLC-272H,0.313,0.461,0.318,0.332,0.353,–,0.762,0.693,0.758,0.793,–,0.352,0.167,0.21,0.241,0.397,0.359,0.388,0.408
NCI-H1793,–,0.864,0.949,0.76,1.09,–,0.478,0.628,0.867,0.938,–,0.347,0.275,0.367,0.374,0.792,0.914,0.774,0.671
NCI-H2126,0.662,0.703,0.68,0.693,0.721,1.16,1.18,1.26,1.06,1.06,0.805,0.828,0.877,0.86,0.842,0.835,0.757,0.818,0.658
LXF-289,1.01,0.899,0.904,0.845,0.848,1.06,1.06,1.08,0.99,0.996,0.223,0.213,0.189,0.189,0.175,0.74,0.846,0.982,0.891
NCI-H2009,1.06,1.06,0.977,0.971,0.925,1.2,1.16,1.19,1.15,1.06,0.787,0.738,0.613,0.801,0.51,1.05,0.935,0.959,0.934
NCI-H3122,0.207,0.188,0.188,0.191,0.212,0.999,0.932,1.01,0.992,0.996,0.408,0.382,0.435,0.394,0.426,0.208,0.194,0.214,0.194
NCI-H1755,0.438,0.427,0.458,0.456,0.42,0.79,0.868,0.896,0.872,0.874,0.584,0.614,0.561,0.557,0.567,0.402,0.404,0.398,0.466
HCC-78,–,0.934,0.899,0.839,0.927,0.523,0.553,0.524,0.638,0.701,0.334,0.429,0.472,0.517,0.415,0.576,0.885,0.865,0.894
LOU-NH91,0.367,0.356,0.417,0.416,0.352,0.898,0.92,0.945,0.967,0.948,0.647,0.664,0.749,0.781,0.698,0.335,0.421,0.463,0.415
NCI-H322M,0.703,0.662,0.633,0.623,0.658,0.908,1.25,0.921,0.966,0.93,0.536,0.518,0.547,0.448,0.476,0.639,0.677,0.655,0.589
HCC-827,0.272,0.211,0.259,0.273,0.247,1.07,0.992,1.05,1.06,0.969,0.436,0.44,0.42,0.414,0.433,0.234,0.304,0.288,0.247

# — the supplement of paper PMC10307832
